Experimental data reported in ChEMBL document CHEMBL1201862, “PubChem BioAssay data set” (2004).
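The compound was tested at five concentrations on cells cultured in 96-well plates, with a 48-hour exposure period. At the GI50, growth is halved.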 Activity calls are given as the source filed them. No stated cut-off is given here; in the data, active = GI50 up to about 1.1 µM and inactive = higher.

Legend:
Experiment in all cases: growth of human tumour cells (NCI), 48 h
MDA-MB-435 = tested on: MDA-MB-435
U-251 = tested on: U-251
T47D = tested on: T47D
SK-OV-3 = tested on: SK-OV-3
HT-29 = tested on: HT-29
MCF7 = tested on: MCF7
KM12 = tested on: KM12
A498 = tested on: A498
SK-MEL-28 = tested on: SK-MEL-28
SN12C = tested on: SN12C
SF-268 = tested on: SF-268
DU-145 = tested on: DU-145
SK-MEL-5 = tested on: SK-MEL-5
SR = tested on: SR
EKVX = tested on: EKVX
LOX IMVI = tested on: LOX IMVI
NCI-H23 = tested on: NCI-H23
UACC-257 = tested on: UACC-257
PC-3 = tested on: PC-3
SW-620 = tested on: SW-620

Measured: GI50

CC12CC(=O)C3C(CCC4=CC(=O)CCC43C)C1CC=C2CC(=O)O (stereo not given)
inactive: MDA-MB-435 > 100 µM | U-251 > 100 µM | T47D > 100 µM | SK-OV-3 > 100 µM | HT-29 > 100 µM | MCF7 > 100 µM | KM12 > 100 µM | A498 > 100 µM | SK-MEL-28 > 100 µM | SN12C > 100 µM | SF-268 > 100 µM | DU-145 > 100 µM | SK-MEL-5 > 100 µM | SR > 100 µM | EKVX > 100 µM | LOX IMVI > 100 µM | NCI-H23 > 100 µM | UACC-257 > 100 µM | PC-3 > 100 µM | SW-620 > 100 µM

Nc1nc(-c2cccs2)cs1
inactive: MDA-MB-435 79.8 µM | U-251 71.3 µM | T47D 66.8 µM | SK-OV-3 > 100 µM | HT-29 > 100 µM | MCF7 91.8 µM | KM12 81.7 µM | A498 > 100 µM | SK-MEL-28 > 100 µM | SN12C > 100 µM | SF-268 > 100 µM | DU-145 > 100 µM | SK-MEL-5 73.3 µM | SR 69.5 µM | EKVX 43.3 µM | LOX IMVI 79.1 µM | NCI-H23 > 100 µM | UACC-257 > 100 µM | PC-3 67.9 µM | SW-620 > 100 µM

CCOC(=O)/C(=C\c1cccc(C)c1)C(C)=O
inactive: MDA-MB-435 16.3 µM | U-251 13.1 µM | T47D 11.1 µM | SK-OV-3 25.8 µM | HT-29 17.9 µM | MCF7 13.2 µM | KM12 15.2 µM | A498 13.4 µM | SK-MEL-28 12.6 µM | SN12C 17.1 µM | SF-268 15.2 µM | DU-145 16.7 µM | SK-MEL-5 16.6 µM | SR 3.44 µM | EKVX 48 µM | LOX IMVI 13.6 µM | NCI-H23 17 µM | UACC-257 14.3 µM | PC-3 10.5 µM | SW-620 12.5 µM

CNCCCNC(=S)Cn1cc(C)c(=O)[nH]c1=O
inactive: MDA-MB-435 > 26.1 µM | U-251 > 47.5 µM | T47D > 100 µM | SK-OV-3 > 54.8 µM | HT-29 > 35.9 µM | MCF7 > 31.8 µM | KM12 > 48.1 µM | A498 > 55.6 µM | SK-MEL-28 > 56.9 µM | SN12C > 100 µM | SF-268 > 39.1 µM | DU-145 > 52.2 µM | SK-MEL-5 > 21.3 µM | SR > 32.9 µM | EKVX > 60.8 µM | LOX IMVI > 34.2 µM | NCI-H23 > 41.8 µM | UACC-257 > 37.9 µM | PC-3 > 45.5 µM | SW-620 > 56.4 µM

N#Cc1c(=O)c2cc([N+](=O)[O-])ccc2n2c1[nH]c1ccccc12
inactive: MDA-MB-435 10.3 µM | U-251 7.71 µM | T47D 4.44 µM | SK-OV-3 5.79 µM | HT-29 8.09 µM | MCF7 6.92 µM | KM12 5.85 µM | A498 1.71 µM | SK-MEL-28 4.48 µM | SN12C 9.93 µM | SF-268 8.67 µM | DU-145 8.05 µM | SK-MEL-5 13.3 µM | SR 10.7 µM | EKVX 23.1 µM | LOX IMVI 5.24 µM | NCI-H23 3.19 µM | UACC-257 7.46 µM | PC-3 4 µM | SW-620 8.71 µM

CC(O)C(NC(=O)C(CS)NC(=O)C(CO)NC(=O)C(CCCCN)NC(=O)C(Cc1c[nH]c2ccccc12)NC(=O)C(Cc1ccc(O)cc1)NC(=O)C(CS)NC(=O)C(N)Cc1ccccc1)C(N)=O (stereo not given)
inactive: MDA-MB-435 > 25 µM | U-251 > 25 µM | T47D > 25 µM | SK-OV-3 > 25 µM | HT-29 > 25 µM | MCF7 > 25 µM | KM12 > 25 µM | A498 > 25 µM | SK-MEL-28 26.9 µM | SN12C > 25 µM | SF-268 > 25 µM | DU-145 > 25 µM | SK-MEL-5 > 25 µM | SR > 25 µM | EKVX > 25 µM | LOX IMVI > 25 µM | NCI-H23 > 25 µM | UACC-257 > 25 µM | PC-3 > 25 µM | SW-620 > 25 µM

N#Cc1c(-c2ccc([N+](=O)[O-])cc2)cc(-c2ccc(Nc3ccnc4cc(C(F)(F)F)ccc34)cc2)nc1N
inactive: MDA-MB-435 9.14 µM | U-251 6.34 µM | T47D 7.89 µM | SK-OV-3 24 µM | HT-29 5.13 µM | MCF7 2.59 µM | KM12 7.19 µM | A498 > 48.3 µM | SK-MEL-28 25.5 µM | SN12C 17.9 µM | SF-268 33 µM | DU-145 13.1 µM | SK-MEL-5 25.5 µM | SR 1.79 µM | EKVX 36.1 µM | LOX IMVI 3.64 µM | NCI-H23 23.2 µM | UACC-257 > 50 µM | PC-3 18.9 µM | SW-620 8.3 µM

N#CC1CNC(N)NC1N (stereo not given)
inactive: MDA-MB-435 > 100 µM | U-251 > 100 µM | T47D > 100 µM | SK-OV-3 > 100 µM | HT-29 > 100 µM | MCF7 > 100 µM | KM12 > 100 µM | A498 > 100 µM | SK-MEL-28 > 100 µM | SN12C > 100 µM | SF-268 > 100 µM | DU-145 > 100 µM | SK-MEL-5 > 100 µM | SR 34 µM | EKVX > 100 µM | LOX IMVI > 100 µM | NCI-H23 > 100 µM | UACC-257 > 100 µM | PC-3 > 100 µM | SW-620 > 100 µM

O=C(C/C(=N/O)C(F)(F)F)c1cccs1
inactive: MDA-MB-435 > 100 µM | U-251 > 100 µM | T47D > 100 µM | SK-OV-3 76.2 µM | HT-29 > 100 µM | MCF7 > 100 µM | KM12 > 100 µM | A498 > 100 µM | SK-MEL-28 > 100 µM | SN12C > 100 µM | SF-268 > 100 µM | DU-145 > 100 µM | SK-MEL-5 > 100 µM | SR > 100 µM | EKVX > 100 µM | LOX IMVI > 100 µM | NCI-H23 > 100 µM | UACC-257 > 100 µM | PC-3 > 100 µM | SW-620 > 100 µM

CCc1nc(N)nc(N)c1-c1ccc([N+](=O)[O-])c(Cl)c1
inactive: MDA-MB-435 1.99 µM | U-251 3.1 µM | T47D 39.5 µM | SK-OV-3 27.5 µM | HT-29 1.78 µM | MCF7 4.55 µM | KM12 6.87 µM | A498 27 µM | SK-MEL-28 36.5 µM | SN12C 13.3 µM | SF-268 4.29 µM | DU-145 10.8 µM | SK-MEL-5 2.19 µM | SR 1.74 µM | EKVX 5.74 µM | LOX IMVI 1.44 µM | NCI-H23 3.56 µM | UACC-257 31 µM | PC-3 1.87 µM | SW-620 1.49 µM
